According to PubChem BioAssay (NCI):
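Method: 48-hour compound exposure of cells in 96-well plates, five concentrations, linear interpolation of endpoints. TGI marks complete inhibition of growth.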

Legend:
Test in all cases: NCI tumour cell line growth inhibition, 48 h
[1] = tested on: NCI-H23 lung
[2] = tested on: HOP-92 NSCLC
[3] = tested on: CCRF-CEM leukemia
[4] = tested on: HCC-2998 colon
[5] = tested on: SK-OV-3 ovarian
[6] = tested on: SR leukemia
[7] = tested on: HOP-62 NSCLC
[8] = tested on: TK-10 renal
[9] = tested on: SNB-19 CNS
[10] = tested on: NCI-H522 lung
[11] = tested on: A498 renal
[12] = tested on: SW-620 colon
[13] = tested on: IGROV1 ovarian
[14] = tested on: SK-MEL-5 melanoma
[15] = tested on: SNB-75 CNS
[16] = tested on: SK-MEL-2 melanoma
[17] = tested on: HCT-15 colon
[18] = tested on: HT29 colon
[19] = tested on: HCT-116 colon
[20] = tested on: MDA-MB-435
[21] = tested on: K-562 leukemia
[22] = tested on: OVCAR-5 ovarian
[23] = tested on: COLO 205 colon
[24] = tested on: MDA-MB-231 breast
[25] = tested on: NCI-H460 lung
[26] = tested on: SK-MEL-28 melanoma
[27] = tested on: ACHN renal
[28] = tested on: PC-3 prostate
[29] = tested on: DU-145 prostate
[30] = tested on: SF-539 CNS
[31] = tested on: UACC-257 melanoma
[32] = tested on: MCF7 breast
[33] = tested on: OVCAR-8 ovarian
[34] = tested on: HL-60(TB) leukemia
[35] = tested on: HS 578T breast
[36] = tested on: RXF 393 renal
[37] = tested on: T-47D breast
[38] = tested on: CAKI-1 renal
[39] = tested on: A549 NSCLC
[40] = tested on: SF-268 CNS
[41] = tested on: OVCAR-4 ovarian
[42] = tested on: KM12 colon
[43] = tested on: UACC-62 melanoma
[44] = tested on: M14 melanoma
[45] = tested on: NCI-H226 lung
[46] = tested on: 786-0 renal
[47] = tested on: MDA-N
[48] = tested on: SF-295 CNS
[49] = tested on: EKVX NSCLC
[50] = tested on: U251 CNS
[51] = tested on: UO-31 renal
[52] = tested on: OVCAR-3 ovarian
[53] = tested on: MOLT-4 leukemia
[54] = tested on: RPMI-8226 leukemia
[55] = tested on: NCI/ADR-RES ovarian
[56] = tested on: SN12C renal
[57] = tested on: LOX IMVI melanoma
[58] = tested on: MALME-3M melanoma

Molecule `Cc1nc2c(sc3nc4c(cc32)CCC4)c(=O)o1` has a TGI [1] greater than 100 µM, a TGI [2] greater than 96.4 µM and a TGI [3] greater than 88.9 µM. It also gave a TGI [4] greater than 100 µM, a TGI [5] greater than 100 µM and a TGI [6] greater than 100 µM. The TGI [7] was greater than 100 µM, the TGI [8] was greater than 100 µM and the TGI [9] was greater than 96.6 µM. For the same molecule, the TGI [10] was 77.9 µM, the TGI [11] was greater than 100 µM and the TGI [12] was greater than 100 µM. The TGI [13] was 59.1 µM, the TGI [14] was greater than 100 µM and the TGI [15] was greater than 100 µM. It also gave a TGI [16] greater than 100 µM, a TGI [17] of 99.6 µM and a TGI [18] greater than 100 µM. For the same molecule, the TGI [19] was greater than 100 µM, the TGI [20] was 99.3 µM and the TGI [21] was greater than 100 µM. For the same molecule, the TGI [22] was greater than 100 µM, the TGI [23] was greater than 100 µM and the TGI [24] was greater than 100 µM. The TGI [25] was greater than 100 µM, the TGI [26] was greater than 100 µM and the TGI [27] was greater than 100 µM. It also gave a TGI [28] greater than 100 µM, a TGI [29] greater than 100 µM and a TGI [30] greater than 70.8 µM. For the same molecule, the TGI [31] was greater than 100 µM, the TGI [32] was greater than 100 µM and the TGI [33] was greater than 93.7 µM. It also gave a TGI [34] greater than 100 µM, a TGI [35] greater than 100 µM and a TGI [36] greater than 100 µM. It also gave a TGI [37] greater than 100 µM, a TGI [38] greater than 100 µM and a TGI [39] greater than 100 µM. For the same molecule, the TGI [40] was greater than 100 µM, the TGI [41] was 89 µM and the TGI [42] was greater than 100 µM. For the same molecule, the TGI [43] was greater than 100 µM, the TGI [44] was greater than 100 µM and the TGI [45] was greater than 100 µM. It also gave a TGI [46] greater than 100 µM, a TGI [47] greater than 100 µM and a TGI [48] greater than 100 µM. For the same molecule, the TGI [49] was greater than 100 µM, the TGI [50] was greater than 100 µM and the TGI [51] was greater than 91.1 µM. The TGI [52] was greater than 100 µM, the TGI [53] was greater than 100 µM and the TGI [54] was greater than 88.3 µM. The TGI [55] was greater than 100 µM, the TGI [56] was greater than 100 µM and the TGI [57] was greater than 100 µM.

In the case of `C[C@@H]1CC[C@]2(C)C3(C)CC[C@]2(OC3=O)[C@@]12CC(c1ccoc1)OC2=O` (stereo partly specified), the TGI [1] is reported as greater than 100 µM, the TGI [2] is reported as 69.2 µM and the TGI [3] is reported as 65.9 µM. The TGI [4] was greater than 100 µM, the TGI [5] was greater than 100 µM and the TGI [58] was 41.2 µM. For the same molecule, the TGI [6] was 81 µM, the TGI [7] was greater than 100 µM and the TGI [8] was 96.7 µM. The TGI [9] was greater than 100 µM, the TGI [10] was 4.46 µM and the TGI [11] was greater than 100 µM. It also gave a TGI [12] of 74.2 µM, a TGI [13] of 64.7 µM and a TGI [14] greater than 100 µM. It also gave a TGI [16] greater than 100 µM, a TGI [17] greater than 100 µM and a TGI [18] greater than 100 µM. For the same molecule, the TGI [19] was 32.1 µM, the TGI [20] was 56.4 µM and the TGI [21] was 76.3 µM. It also gave a TGI [22] of 78.4 µM, a TGI [23] of 41.4 µM and a TGI [25] greater than 100 µM. For the same molecule, the TGI [26] was 66.3 µM, the TGI [27] was 43.6 µM and the TGI [28] was greater than 100 µM. The TGI [29] was greater than 100 µM, the TGI [30] was 59.2 µM and the TGI [32] was greater than 100 µM. It also gave a TGI [34] of 44.3 µM, a TGI [35] greater than 100 µM and a TGI [36] of 46.9 µM. For the same molecule, the TGI [37] was greater than 100 µM, the TGI [38] was 72.6 µM and the TGI [39] was greater than 100 µM. The TGI [40] was greater than 100 µM, the TGI [41] was 48.3 µM and the TGI [42] was greater than 100 µM. The TGI [43] was greater than 100 µM, the TGI [44] was 57.2 µM and the TGI [45] was greater than 100 µM. For the same molecule, the TGI [46] was 40.7 µM, the TGI [47] was greater than 100 µM and the TGI [48] was greater than 100 µM. It also gave a TGI [49] greater than 100 µM, a TGI [50] greater than 100 µM and a TGI [51] of 45.5 µM. For the same molecule, the TGI [52] was 58.2 µM, the TGI [53] was 84.4 µM and the TGI [54] was 77.5 µM. The TGI [55] was greater than 100 µM, the TGI [56] was 95.5 µM and the TGI [57] was 43.6 µM.
